Assays:
[1] = test system: human hepatocellular carcinoma (Hep-G2) cells; assay: cells; details: HepG2, 24 h, read-out: EC50, fractional viability
Experimental: HepG2 human liver cancer cell line (ATCC CRL10741; American Type Culture Collection, Manassas, VA, USA) were cultured in 75 cm^2 flasks using growth medium consisting of low glucose Dulbecco's Modified Eagle Medium (DMEM, ThermoFisher) and 10% heat-inactivated bovine serum that was supplemented with 100 IU penicillin and 10 μg/mL streptomycin (Thermo Fisher Scientific). […] The anticancer activity of LATTE on HepG2 was determined using WST-1 reagent (2-(4-Iodophenyl)-3-(4-nitrophenyl)-5-(2,4-disulfophenyl)-2H-tetrazolium sodium) assay as an indication of viability/cytotoxicity treatment. WST-1 viability assay is based on the reduction of tetrazolium salt, WST-1 to an insoluble formazan dye by electron transport across the plasma membrane in viable cells that alter the optical density of the media. […] Cell viability was calculated relative to control wells that received the growth medium alone.
All reported values are the means of three replicate experiments with each study having 8 wells per dose level. Plots of the log concentration versus fractional viability for each drug were generated for each study.

rat liver = details: solubilized with ICG in 25%-LATTE, injected into rat liver
Experimental: Time-dependent evaluation of chemotherapy drug diffusion and retention following LATTE injection in rat liver. […] Post necropsy, near-infrared fluorescent scans (NIRF) showing ICG retention at the two injection sites. […] Fluorescent scans visualizing Doxorubicin at the medial location of the same liver.
Intrahepatic injections or LATTE mixtures were performed in Sprague Dawley rats via laparotomy. Anesthetized rats were placed in a supine position on a warming platform. The abdominal hair was removed with an electric shaver and scrubbed to disinfect the skin with triple applications of povidone-iodine alternating with 70% alcohol. […]
To assess differences in ICG or doxorubicin spreading and retention following intrahepatic injections, ex vivo spectral fluorescence imaging was performed on fixed liver tissues using the IVIS 200 system (PerkinElmer, Inc. USA). […] Cross-sectional images were acquired following near-infrared illumination at the excitation wavelength of 750 nm, while fluorescent emission was acquired at 850 nm to visualize indocyanine green (ICG); Doxorubicin was detected at an excitation wavelength of 460 nm and an emission wavelength of 560 nm. […] Fluorescent intensity was quantified in the region of interest (ROI) of each tissue. […]

renal artery = test system: renal artery; design: species or system swine; details: in vivo
Experimental: Healthy Yorkshire pigs (S&S Farms, Brentwood, CA) weighing 48 to 55 kg were acclimatized for at least 4 days under standard feeding conditions and suitable temperature. Pigs were anesthetized using intramuscular injection of 5 mg kg^−1 tiletamine-zolazepam (Telazol, Zoetis), […] xylazine, and 0.02 mg kg^−1 glycopyrrolate. Pigs were then placed in a supine position and intubated on an X-ray compatible operating table (Pannomed Aeron, DRE, KY). Following intubation, anesthesia was maintained with inhalation of 1.5-3% isoflurane. During the procedure, electrocardiogram, transcutaneous oxyhemoglobin saturation (SpO2), end-tidal CO2 concentration, inspired oxygen fraction, and core temperature were monitored. Percutaneous access to the carotid artery was obtained using ultrasound guidance (ACUSON 52000, Siemens) and fluoroscopy (OEC Elite C-Arm, GE Healthcare Systems, Chicago, IL). Access needle and wire were exchanged for a 5 French catheter (Cook Medical). Over a GT-glidewire (Terumo Medical), the tip of the catheter was advanced to the renal using contrast-enhanced fluoroscopy (350 mgI mL-1 Omnipaque, GE HealthCare, MA). […] The radiopacity of NanoGel or NS hydrogel and vessel patency were assessed using digital subtraction angiography. […] At necropsy, the embolized kidneys were explanted for fluorescence imaging and histology.

Row | Compound | EC50 [1] [nM] | doxorubicin retention throughout the affected zone (rat liver) | nivolumab localization (immunohistochemistry) (renal artery)
1 | COc1cccc2c1C(=O)c1c(O)c3c(c(O)c1C2=O)C[C@@](O)(C(=O)CO)C[C@@H]3O[C@H]1C[C@H](N)[C@H](O)[C@H](C)O1 [Doxorubicin] | 1630 | up to 28 days | 
2 | Nivo: immunotherapy agent Nivolumab (an anti PD-1 antibody) |  |  | localized inside the renal artery and in the surrounding area

Source: patent publication US12661404B2, “Methods and materials for tissue ablation” (Mayo Foundation for Medical Education and Research, priority 2020, dated 2026)
